From patent US20250041285A1, “MODIFYING THE […] OF A GENE ENCODING AN CYCLOOXYGENASE ENZYME BY TREATING A HUMAN SUBJECT WITH A NITROXIDE” (priority 2021, published 2025)

Assays:
PTGS1 (COX1) = experiment: Effects of Tempol on gene expression in cardiac tissue, chip-based microarray; format: in vivo; details: mice, Tempol 5 mg/g of food from 14 to 31 months after birth
Experimental: To assess the effects of Tempol on gene expression, Tempol was administered to experimental mice at a dose of 5 mg/g of food from 14 months to 31 months after birth. Mice receiving the same food without the addition of Tempol were used as a negative control. At the age of 31 months, the experimental animals were sacrificed and the hearts were surgically removed. The expression of a broad spectrum of genes in the cardiac tissue was assessed using chip-based microarray technology. Such chips are well known in the art and are widely used to assess gene expression.

COX1 = experiment: Treatment of human subject with Tempol, serum level of COX1; format: in vivo; details: 2000 mg per day for 180 days
Experimental: A 70-kilogram human subject over the age of 65 and having a cardiovascular disease is identified for an increased expression level of COX1. Or a 70-kilogram human subject over the age of 65 is known to have a cardiovascular disease and/or […] expression level of COX1. The human subject is administered a dose of 2000 mg of Tempol (or another nitroxide antioxidant) per day for 180 days. This may be administered in a single dose, or may be administered as a number of smaller doses over a 24-hour period: for example, four 500-mg doses at […]. Following treatment, the serum level of COX1, is decreased.
A 70-kilogram human subject at risk of developing colorectal cancer is identified for increased expression level of COX1. Or a 70-kilogram human subject is known to be at risk of developing colorectal cancer and/or have increased expression level of COX1. The human subject is administered a dose of 2000 mg of Tempol (or another nitroxide antioxidant) per day for 180 days. This may be administered in a single dose, or may be administered as a number of smaller doses over a 24-hour period: for example, four 500-mg doses at […]. Following treatment, the serum level of COX1, is decreased. […]
A 70-kilogram human subject having an infection (e.g., a bacterial, fungal, or viral infection) is identified for increased expression level of COX1. Or a 70-kilogram human subject is known to have an infection and/or have increased expression level of COX1. The human subject is administered a dose of 2000 mg of Tempol (or another nitroxide antioxidant) per day for 180 days. This may be administered in a single dose, or may be administered as a number of smaller doses over a 24-hour period: for example, four 500-mg doses at […]. Following treatment, the serum level of COX1, is decreased.

## CC1(C)CC(O)CC(C)(C)N1[O] [Tempol, 4-hydroxy-2,2,6,6-tetramethylpiperidine-1-oxyl]
PTGS1 (COX1); hearts at 31 months, vs same food without Tempol, P-value 0.006
  Fold change (gene expression in cardiac tissue after Tempol administration): −1.18
PTGS1 (COX1); microarray
  COX1 expression in cardiac tissue: statistically significant decrease in expression
COX1; Example 2: 70-kilogram human subject over the age of 65 with increased COX1 expression
  serum level of COX1 following treatment: decreased
COX1; Example 3: 70-kilogram human subject with increased COX1 expression
  serum level of COX1 following treatment: decreased
COX1; Example 4: 70-kilogram human subject over the age of 65 having a cardiovascular disease
  serum level of COX1 following treatment: decreased
COX1; Example 5: 70-kilogram human subject at risk of developing colorectal cancer
  serum level of COX1 following treatment: decreased
COX1; Example 6: 70-kilogram human subject at risk of developing an autoimmune disease (e.g., rheumatoid arthritis)
  serum level of COX1 following treatment: decreased
COX1; Example 7: 70-kilogram human subject at risk of developing a condition due to aging
  serum level of COX1 following treatment: decreased
COX1; Example 8: 70-kilogram human subject at risk of developing a neurodegenerative disease (e.g., Parkinson's Disease)
  serum level of COX1 following treatment: decreased
COX1; Example 9: 70-kilogram human subject having an infection (bacterial, fungal, or viral)
  serum level of COX1 following treatment: decreased
